Results taken from paper PMC10482691, “LTP induction by structural rather than enzymatic functions of CaMKII” (Nature, 2023).
Values joined by “and” are separate entries in the source; they are usually repeats but may differ in a detail not shown here. Equal values may be shown once.

Columns and labels:
[1] = system: GFP–paCaMKII F89G in hippocampal neurons; experiment: paCaMKII F89G photoactivation: dendritic spine growth (sLTP); format: cell-based
[2] = system: GFP–paCaMKII T286A in hippocampal neurons; experiment: paCaMKII T286A photoactivation: dendritic spine growth (sLTP); format: cell-based

Row | SMILES | spine growth after photoactivation of paCaMKII F89G ([1]; NM-PP1 10 μM) | dendritic spine growth after photoactivation (sheet 6f) ([1]; paCaMKII F89G + NMPP1, individual neurons) | spine growth after photoactivation of paCaMKII T286A ([2]; AS283 10 μM) | dendritic spine growth after photoactivation (sheet 6c) ([2]; paCaMKII T286A + AS283, individual neurons)
1 | CC(C)(C)n1nc(Cc2cccc3ccccc23)c2c(N)ncnc21 [NM-PP1] | spine growth | 172.556 and 35.7596 and 20.47 and 19.9369 and 44.1548 and -7.983 and 10.7769 and 28.3493 and 0.9564 and -9.357 and -3.692 and 75.8167 and 167.851 and -2.441 and -1.61 and -17.673 and 155.504 and 81.1061 | – | –
2 | NCCNc1cccc(-c2ccnc3[nH]c4ccccc4c23)c1 [AS283] | – | – | spine growth | 17.1219 and 31.801 and 10.2332 and 47.3616 and 15.5579 and 21.0974 and 9.7214 and 4.0121 and 26.179
